Values of other authors, collected in patent US20240293789A1, “Encapsulation of Functional Additives in Partially-Open Microcapsules” (priority 2023, published 2024).

Settings: common solvents used for the encapsulated materials; reference table

| Compound | solubility in water |
| --- | --- |
| COCCOC [1,2-dimethoxy-ethane (glyme, DME), 1,2-dimethoxy-ethane] | Miscible |
| C1CCCCC1 [cyclohexane] | 0.0055 g/100 g |
| CCOCC [diethyl ether] | 7.5 g/100 g |
| CCOC(C)=O [ethyl acetate] | 8.7 g/100 g |
| CCCCCCC [heptane] | 0.01 g/100 g |
| Cc1ccccc1C [o-xylene] | Insoluble |
| Cc1ccc(C)cc1 [p-xylene] | Insoluble |
| CCCCC [pentane] | 0.04 g/100 g |

Now from value to compound:

| solubility in water | Compound |
| --- | --- |
| Miscible | CN(C)P(N(C)C)N(C)C [Hexamethylphosphorous triamide (HMPT), Hexamethylphosphorous triamide] |
| Miscible | COCCOCCOC [diethylene glycol dimethyl ether] |
| Miscible | CCO [ethanol] |
| Miscible | OCC(O)CO [glycerin] |
| 0.0014 g/100 g | CCCCCC [hexane] |
| Insoluble | Cc1cccc(C)c1 [m-xylene] |
